Calls of active or inactive are those of the source.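 The calls were made as follows: active = compounds giving half or more protection of infected cells from virus-caused growth loss, again on retest; inactive = the rest.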 Where a SMILES comes first, the peptide text is derived from it. [ ]: non-standard residue; d: D form. The star is where a group is joined. ξ: configuration not given here. ξF = NC(Cc1ccccc1)C(=O)O; Cbz = O=C(OCc1ccccc1)*
System: CEM cells HIV-1 protection, formazan growth assay
Assay: NCI AIDS Antiviral Assay
Conditions: for IC50: measured here: growth of uninfected CEM cells
Method in brief: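 Soluble formazan readout of cell growth; CEM cells ± HIV-1; 5 drug concs. ≥50% protection → retest; ≥50% again = moderately active; reproducible 100% = confirmed active.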

SMILES	EC50 [µM]	IC50 [µM]	outcome
Nc1ncccc1N1C(=O)c2ccccc2C1=O	> 200	> 200	
COc1ccc(CN2C(=O)C(=O)N(C)C2=O)c2ccccc12	> 200	25.7	
CC(C)(C)C1CCC2(CC1)CCN(CCCN1CCOCC1)CC2	> 55	12.3	
Oc1ccc2ccccc2c1C1=NNc2n[nH]c(=S)n2N1	> 148	19.1	
CC(=O)c1sc(=N)n(-c2c(C)cccc2C)c1C	> 200	> 200	
CN(NC(=O)c1ccco1)C1=NCCN1	> 200	> 200	
COc1ccc(C2OC(N)=C(C#N)C3=C2CCCC3C)cc1OC (centres undefined)	> 200	> 200	
COc1cc2cc[n+](C)c(Cc3ccccc3)c2cc1OC	> 200	166	
O=C1CCC(c2ccccc2)(C2(c3ccccc3)CCC(=O)O2)O1 (centres undefined)	> 200	151	
CC1=CP(=O)(c2ccccc2)C=C(C)C1=C(Cl)Cl (centres undefined)			inactive
Cc1ccc(C(=O)/C=C/c2ccc(N(C)C)cc2)cc1	> 7.59	> 7.59	
CCOC(=O)C(=C(SC)SC)c1nn2c(=O)cc(C)nc2s1	> 200	17.8	
O=C1NN=C(C2CCCCC2)C12CCCCC2	> 214	67.6	
C=C1[C@H](O)[C@@]2(C(=O)N1OC)/C(=C/CC)C=CC(=O)C2O (some centres undefined)	> 891	331	
COC(=O)c1c(-c2ccccc2)c2sc3ccccc3n2c1N	> 200	> 200	
O=C1OC(c2ccccc2)=C2CCC3CCCCN1C23 (centres undefined)	> 132	> 132	
CN1C(=O)CCSC1=S			inactive
COc1ccc2c(c1)C(=O)c1ccc(OC)cc1C2=S			inactive
COC(=O)C(Cc1ccccc1)NP(=O)(O)OCC1OC(n2cc(F)c(=O)[nH]c2=O)CC1O (centres undefined)	> 200	58.9	
[O-][n+]1onc2c1/C(=N/O)CCC2	> 200	> 200	
O=C1c2cscc2C(=O)c2c(OCc3ccccc3)ccc(OCc3ccccc3)c21	> 200	4.17	
O=c1c2cc(S(=O)(=O)Nc3ccccc3)ccc2ncn1NS(=O)(=O)c1ccccc1	> 100	58.9	

SMILES	EC50 [µM]	IC50 [µM]	outcome
CN1C(=O)C23SSC1(C)C(=O)N2c1ccccc1C3(C)C (centres undefined)	> 200	7.94	
O=c1n(-c2ccccc2)c(=O)n2n1C1C3C4CCC1C4(Cl)C32 (centres undefined)	> 40.7	> 40.7	
COc1onc(C)c1CC(=O)O	> 200	> 200	
NC(CSS(=O)(=O)O)=NCCc1ccccn1	> 200	> 200	
CO/S(=N/S(=O)(=O)c1ccccc1)c1ccccc1[N+](=O)[O-] (centres undefined)	> 380	102	
COc1cc(NCCCCCN=C(N)NC#N)c2ncccc2c1	> 79.4	50.1	
CC1=NN(c2cccc(S(=O)(=O)O)c2)C(=O)C1N=Nc1cc(Cl)cc(S(=O)(=O)O)c1O.O.[Cr] (centres undefined)	89.1	> 100	
Cc1cn(C2CC(O[Si](C)(C)C(C)(C)C)C(CNC(=O)N(O)C3CC(n4cc(C)c(=O)[nH]c4=O)OC3CO[Si](C)(C)C(C)(C)C)O2)c(=O)[nH]c1=O (centres undefined)	> 200	2.09	
CC(C)OP(=S)(NC(=S)c1ccccc1)OC(C)C	> 741	178	
O=C(NCCc1c[nH]c2ccccc12)C(F)(F)C(F)(F)F	> 200	38	
C[n+]1c(-c2ccc(/C=N/NC(=O)c3cc(O)c(C(=O)N/N=C/c4ccc(-c5cn6ccccc6[n+]5C)cc4)cc3O)cc2)cn2ccccc21	> 6.31	> 6.31	
Cc1ccc(C)c(NC(=O)CC/C(=N\NC(=O)C(=O)NN)C(C)C(=O)c2ccc(O)cc2)c1 (centres undefined)			inactive
O=C(/C=C/c1ccc(O)c(O)c1)NCCOC(=O)/C=C/c1ccc(O)c(O)c1	> 200	8.51	
CC(C)n1c2c(c3ccccc3c1=O)C(=O)c1ccccc1-2	> 64.6	> 64.6	
COc1cc2c3c(c1)nnn3C(=O)CCS2	> 200	> 200	
CC1(C)N=C(C(N)=O)c2ncn(CCO)c2N1	> 200	> 200	
N#CSCC1COc2ccccc2O1 (centres undefined)	> 200	1.23	
COc1cccc2c1CCc1cc3c(N)nc(N)nc3nc1-2	> 200	5.25	
O=C(O)[C@H]1CSCN1C(=O)c1ccccc1SSc1ccccc1C(=O)N1CSC[C@H]1C(=O)O	> 200	> 200	
O=c1c2ccc(Br)cc2nc(-c2ccccc2)n1NC1OC(CO)C(O)C(O)C1O (centres undefined)			inactive
C(#C[PH+](c1ccccc1)c1ccccc1)c1ccccc1.C(#C[PH+](c1ccccc1)c1ccccc1)c1ccccc1.C(#C[PH+](c1ccccc1)c1ccccc1)c1ccccc1.[C-]#[O+].[C-]#[O+].[C-]#[O+].[Cr]	> 0.55	> 0.55	
Cc1cc(C)c(C2=NO[C@@H]3C(=O)N(c4ccc(Cc5ccc(N6C(=O)[C@H]7C(c8c(C)cc(C)cc8C)=NO[C@H]7C6=O)cc5)cc4)C(=O)[C@H]23)c(C)c1	> 7.59	> 7.59	

SMILES	EC50 [µM]	IC50 [µM]	outcome
CC(C)C1CNC(=O)C2(C=NC(C(C)C)CNC(=O)C3(C=N1)CCCO3)CCCO2 (centres undefined)	> 12.3	> 12.3	
O=[N+]([O-])c1ccccc1Sc1ccccc1[N+](=O)[O-]	> 7.94		
CC(C)(C)c1ccc(-c2nnc(-c3cc(C#N)cc(-c4nnc(-c5ccc(C(C)(C)C)cc5)o4)c3)o2)cc1	> 100	> 100	
O=C(Nc1ccccc1C(F)(F)F)OCCN1CCNC1=S	> 200	> 200	
Cc1c2ccc(Cl)cc2nc2ccc(OCCNC(=O)[C@H](CCCN=C(N)N)NC(=O)OC(C)(C)C)cc12	> 200	89.1	
CCOC(=O)c1nc2c(OC)nn(O)cc-2c1[N+](=O)[O-]	> 457	5.75	
O=C1N=C2SC(=S)NC(=S)N2NC12c1ccccc1-c1ccccc12	> 200	32.4	
COC1(C)C(=O)N(C)C1c1ccccc1 (centres undefined)	> 200	> 200	
C[n+]1c2ccccc2c(/C=N\NS(=O)(=O)c2ccc(O)c(C(=O)O)c2)c2ccccc21			inactive
C[CH2][Sn]([CH2]C)([O]C(=O)c1ccc(F)cc1)[O]C(=O)c1ccc(F)cc1	> 110	3.63	
Cc1[nH]n(C(=O)Cc2ccccc2)c(=O)c1/C=C1\C(=O)C=Cc2ccccc21	> 51.3	> 51.3	
COc1cc(N=NN(C)C)c(C(C)c2c3cc(OC)c(OC)cc3cc[n+]2C)cc1OC (centres undefined)	> 200	20.9	
Cc1nc2c(=O)[nH]c3ccc(Cl)cc3c2o1	> 200	148	
CCCCCC(=O)Cc1cc(OC)cc2c1C(=O)Oc1cc(O)c(C(=O)O)c(CC(=O)CCCCC)c1O2	> 339	112	
CCCCOC(=O)c1c2nc3c(C(=O)OCCCC)ccc(C)c3oc-2c(C)c(=O)c1NC(C)=O	> 151	24.5	
CSc1c(N(C)C)c(=O)c1=S	> 200	4.9	
CCOC(=O)CNC(=O)C(Cc1ccccc1)NC(=O)OCc1ccccc1 (centres undefined) (Cbz-[ξF]-Gly-OEt)	> 200	191	
CC(c1ccccc1)n1cncc1C(=O)NN1CCN(C)CC1 (centres undefined)	> 200	> 200	
C[N+](C)(C)CC(=O)N/N=C(\CCC(=O)NCCc1ccccc1)CC(=O)c1ccccc1			inactive
Cc1ccc(/C=C2\Cc3cccc(C)c3C2=O)c(C(=O)O)c1	> 200	105	
CC(=O)OCC(C)C1=C(OC(C)=O)C(=O)C2(C)C/C=C(/C)CC/C=C(\C)CCC(OC(C)=O)C(C)CCC12 (centres undefined)	> 200	14.5	
CC(C)NC(=O)OCc1c(COC(=O)NC(C)C)n(C)c2c1ccc1cc(Cl)c(Cl)cc12	> 200	2.95	

SMILES	EC50 [µM]	IC50 [µM]	outcome
C=Cc1ccc(C)[n+](C[Si](C)(C)O[Si](C)(C)C[n+]2cc(C=C)ccc2C)c1	> 380	245	
N/N=C(\C(=O)Nc1ccc(Cl)cc1Cl)C(c1cnc2ccccc2n1)[N+](=O)[O-] (centres undefined)	> 120	> 120	
CCCc1cc(-c2ccc(-c3cc(CCC)c(C=O)[nH]3)s2)[nH]c1C=O	> 5.62	1.62	
C(=N\Nc1ccc2ccccc2n1)/c1ccccn1.CC(=O)[O-].CC(=O)[O-].[Zn+2]	> 200	1.05	
CC(C)N(C(=O)C1(C)CC1)C(C)C	> 1350	> 1350	
Cc1ccc2c(c1)NC(=O)C(N=[N+]=[N-])(c1ccccc1)C2=O (centres undefined)	> 200	49	
Cn1c(=O)cc(CNc2ccc(-c3ccccc3)cc2)c2ccccc21	> 200	75.9	
CCN(CC)Cc1cc(Nc2c3ccccc3nc3c4ccccc4n(C)c23)cc(CN(CC)CC)c1O	> 155	3.09	
COc1ccc(/C=C2\N=C(c3ccccc3)N(N=C3NC(=O)CC(=O)N3)C2=O)cc1	> 200	> 200	
CCCCCCNC(=S)N/N=C(\C)c1ccccn1	> 0.2	0.0324	
CCCCCCCCOC1C(O)C(O)C(O)C(O)C12CO2 (centres undefined)	> 200	75.9	
CN1c2ccccc2C(=O)Nc2cnc(Cl)nc21	> 200	> 200	
COc1ccc(/C(=N/O)c2ccccc2-c2nc3ccccc3c(=O)n2-c2ccc(S(=O)(=O)Nc3ccccn3)cc2)cc1C	> 100	63.1	
CCCCc1ccc(-n2sc3ncc(-c4ccccc4)cc3c2=O)cc1	95.5	117	
O=C1NC(=O)C(C(=O)C(=O)Nc2cc(Cl)ccc2Cl)C(=O)N1	> 380	302	
O=C1c2cnccc2Cc2cccc3c2N1c1ccccc1S3	> 22.9	> 22.9	
C#CC(O)/C=C/C(O)CCCC(O)CC#CC(O)C#CC(O)CCCC(O)/C=C/CCCC(=O)CCCCCCCCCCCCCCCC(O)C(O)C#CC(=O)O (centres undefined)	10	53.7	
COc1cc2oc(-c3ccc4c(c3)OCO4)c(OC)c(=O)c2c(O)c1OC	> 100	> 100	
NC(CCOCCP(=O)(O)CCC1C=CC=CC1)C(=O)O (centres undefined)	> 200	> 200	
CNC(=O)CN(CC(N)=O)C(=O)NC	> 891	> 891	

Source: PubChem BioAssay AID179 (DTP/NCI, 2004)
